From patent publication US6150413A, “Triaromatic compounds and pharmaceutical/cosmetic compositions comprised thereof” (Centre International de Recherches Dermatologiques, priority 1997, dated 2000) come the findings set out here.

Structures are written as SMILES.

In test [1] the test system is RAR. The test can be described thus: mouse-ear oedema induced by topical application of CD270 (test to identify RAR-antagonist molecules). The test is classed as in vivo. The conditions noted are these: for % of inhibition of the agonist activity: mouse-ear oedema, topical, agonist CD270 0.01% w/v; for RAR-antagonist classification from the mouse-ear oedema table: results in words. An excerpt: (§1) The compounds according to the invention show activity in the test of differentiation of mouse embryonic teratocarcinoma cells (F9) (Cancer Research 43, p. 5268, 1983) and/or in the test of inhibition of ornithine decarboxylase after induction with TPA in mice (Cancer Research 38, p. 793-801, 1978). These tests show the activities of these compounds in the fields of cell differentiation and proliferation respectively. In the cell (F9) differentiation test, it is possible to evaluate an agonist activity as an antagonist activity to retinoic acid receptors. […] These compounds are thus also active in a test which consists in identifying RAR-antagonist molecules, as described in French patent application No. 95/07302 filed on Jun. 19, 1995 by the Applicant. This test comprises the following steps: (i) a sufficient amount of an RAR-agonist molecule is applied topically to an area of the skin of a mammal, (ii) a molecule capable of showing RAR-antagonist activity is administered systemically or topically to this same mammal or to this same area of the mammal's skin, before, during or after step (i), and (iii) the response on the area of the mammal's skin thus treated is evaluated. Thus, the response to a topical application to a mammal's ear of an RAR-agonist molecule, which corresponds to an increase in the thickness of that ear, can be inhibited by the systemic or topical administration of an RAR-antagonist molecule.
Results of a test to identify RAR-antagonist molecules, as described in French patent application No. 95/07302 filed on Jun. 19, 1995 by the Applicant.
The test used is that of mouse-ear oedema induced by topical application of 2-(5,6,7,8-tetrahydro-5,5,8,8-tetramethyl-2-naphthyl)-6-benzo[b]-thiophenecarboxylic acid (CD270) at a concentration of 0.01% on a weight per unit volume basis.
The response can be inhibited by the topical administration of a dose (expressed in % on a weight per unit volume basis) of compound X.

The subject of test [2] is RAR. The test can be described thus: differentiation of mouse embryonic teratocarcinoma cells (F9), inhibition of the activity of agonist CD2043 (RAR-antagonist identification). The test is classed as cell-based. The conditions noted are these: for % of inhibition of the agonist activity: F9 cells, compound 10^-5 M, agonist CD2043 10^-8 M; for RAR-antagonist classification from the F9 table: results in words.
From the text: as §1
Results of a test of differentiation of mouse embryonic teratocarcinoma cells (F9) in order to identify RAR-antagonist molecules, described in Cancer Research 43, p. 5268, 1983.
In the test used, a compound is considered as being an RAR antagonist if it lowers the activity of the agonist (4-[(5,5,8,8-tetramethyl-5,6,7,8-tetrahydro-2-naphthylamino)methyl]benzoicacid, referred to as compound CD2043) on the morphology and secretion of the plasminogen activator by the F9 cells. In this test, the compounds are tested at 10^-5 M and the CD2043 is tested at 10^-8 M.

As for `Cc1ccc(-c2ccc(C)cc2/C=C/C#Cc2ccc(C(=O)O)cc2)cc1` [Example 12, 4-[4-(4,4'-Dimethylbiphenyl-2-yl)but-3-en-1-ynyl]benzoic acid], the “% of inhibition of the agonist activity” value in the test on RAR [1] (dose 0.01% w/v) came out at 45%. The “RAR-antagonist classification from the mouse-ear oedema table” value with RAR [1] was “RAR-antagonist compounds”. In the test with RAR [2], the “% of inhibition of the agonist activity” value is recorded as 87% and the “RAR-antagonist classification from the F9 table” value is “RAR-antagonist compounds”.

With `COc1cccc(/C=C/C#Cc2ccc(C(=O)O)cc2)c1-c1ccc(C)cc1` [Example 45, 4-[4-(4'-Methyl-6-methoxybiphenyl-2-yl)but-3-en-(E)-1-ynyl]benzoic acid], the “% of inhibition of the agonist activity” value in the test with RAR [1] (dose 0.1% w/v) stood at 99%; in the test on RAR [2], 95%.

As for `Cc1ccc(-c2cccc(F)c2/C=C/C#Cc2ccc(C(=O)O)cc2)cc1` [Example 11, 4-[4-(3-Fluoro-4'-methylbiphenyl-2-yl)but-3-en-(E)-1-ynyl]benzoic acid], the “% of inhibition of the agonist activity” value in the test on RAR [1] (dose 0.1% w/v) is 99%. In the test with RAR [1], the “RAR-antagonist classification from the mouse-ear oedema table” value is “RAR-antagonist compounds”. Moreover, in the test with RAR [2], the “% of inhibition of the agonist activity” value amounted to 96% and the “RAR-antagonist classification from the F9 table” value is recorded as “RAR-antagonist compounds”.

`Cc1ccc(-c2ccccc2/C=C/C#Cc2ccc(C(=O)O)cc2)cc1` [Example 2, 4-[4-(4'-Methylbiphenyl-2-yl)but-3-en-(E)-1-ynyl]benzoic acid]: the “% of inhibition of the agonist activity” value in the test on RAR [1] (dose 0.01% w/v) is 85%. Also, in the test with RAR [1], the “RAR-antagonist classification from the mouse-ear oedema table” value is recorded as “RAR-antagonist compounds”. For the same molecule, in the test with RAR [2], the “% of inhibition of the agonist activity” value amounted to 94% and the “RAR-antagonist classification from the F9 table” value is “RAR-antagonist compounds”.

In the case of `O=C(O)c1ccc(C#C/C=C/c2ccccc2-c2ccccc2)cc1` [Example 1, 4-(4-Biphenyl-2-ylbut-3-en-(E)-1-ynyl)benzoic acid], in the test on RAR [1] (dose 0.01% w/v), the “% of inhibition of the agonist activity” value is 78%. The “RAR-antagonist classification from the mouse-ear oedema table” value with RAR [1] was “RAR-antagonist compounds”. Also, in the test with RAR [2], the “% of inhibition of the agonist activity” value was 100% and the “RAR-antagonist classification from the F9 table” value is on record as “RAR-antagonist compounds”.

For the molecule `COCOc1cccc(/C=C/C#Cc2ccc(C(=O)O)cc2)c1-c1ccc(C)cc1` [Example 17, 4-[4-(6-Methoxymethoxy-4'-methylbiphenyl-2-yl)but-3-en-(E)-1-ynyl]benzoic acid], the figures for the “% of inhibition of the agonist activity” value in the test with RAR [1] (dose 0.1% w/v) and with RAR [2] were 94% and 98%, respectively.

With `COCOc1ccc(-c2ccccc2/C=C/C#Cc2ccc(C(=O)O)cc2)cc1` [Example 28, 4-[4-(4'-Methoxymethoxybiphenyl-2-yl)but-3-en-(E)-1-ynyl]benzoic acid], the “% of inhibition of the agonist activity” value with RAR [1] (dose 0.01% w/v) is given as 31%; in the test with RAR [2], 96%. For the same molecule, the “RAR-antagonist classification from the mouse-ear oedema table” value in the test with RAR [1] is “RAR-antagonist compounds”. Also, in the test on RAR [2], the “RAR-antagonist classification from the F9 table” value is reported as “RAR-antagonist compounds”.

As for `CCCOc1ccc(/C=C/C#Cc2ccc(C(=O)O)cc2)c(-c2ccc(C)cc2)c1` [Example 43, 4-[4-(4'-Methyl-5-propoxybiphenyl-2-yl)but-3-en-(E)-1-ynyl]benzoic acid], the “% of inhibition of the agonist activity” value with RAR [1] (dose 0.01% w/v) is reported as 24%; in the test on RAR [2], 84%.

Turning to `CC1(C)CCC(C)(C)c2cc(-c3cc4ccc(C(=O)O)cc4s3)ccc21` [CD270, 2-(5,6,7,8-tetrahydro-5,5,8,8-tetramethyl-2-naphthyl)-6-benzo[b]-thiophenecarboxylic acid, reference compound], the “inflammation / thickness of the mouse's ear” value in the test on RAR [1] (topical CD270, 0.01% w/v, mouse ear) was “causes an inflammation which is characterized by an increase in the thickness of the mouse's ear”.

Consider `Cc1ccc(-c2c(C)cccc2/C=C/C#Cc2ccc(C(=O)O)cc2)cc1` [Example 14, 4-[4-(6,4'-Dimethylbiphenyl-2-yl)but-3-en-(E)-1-ynyl]benzoic acid], for which the “% of inhibition of the agonist activity” value in the test on RAR [1] (dose 0.1% w/v) stood at 93%; with RAR [2], 95%.

Turning to `Cc1ccc(-c2c(O)cccc2/C=C/C#Cc2ccc(C(=O)O)cc2)cc1` [Example 44, 4-[4-(4'-Methyl-6-hydroxybiphenyl-2-yl)but-3-en-(E)-1-ynyl]benzoic acid], the results for the “% of inhibition of the agonist activity” value with RAR [1] (dose 0.1% w/v) and in the test with RAR [2] were 54% and 97%, respectively.

Consider `COCOc1ccc(-c2ccc(C)cc2)c(/C=C/C#Cc2ccc(C(=O)O)cc2)c1` [Example 15, 4-[4-(4-Methoxymethoxy-4'-methylbiphenyl-2-yl)but-3-en-(E)-1-ynyl]benzoic acid], for which the “% of inhibition of the agonist activity” value in the test on RAR [1] (dose 0.01% w/v) is recorded as 43%; with RAR [2], 93%.

On to `COc1ccc(/C=C/C#Cc2ccc(C(=O)O)cc2)c(-c2ccc(C)cc2)c1` [Example 42, 4-[4-(4'-Methyl-5-methoxybiphenyl-2-yl)but-3-en-(E)-1-ynyl]benzoic acid], for which the “% of inhibition of the agonist activity” value with RAR [1] (dose 0.01% w/v) came to 26%; in the test on RAR [2], 91%.

Turning to `C/C(=C\C#Cc1ccc(C(=O)O)cc1)c1ccccc1-c1ccc(C)cc1` [Example 18, 4-[4-(4'-Methylbiphenyl-2-yl)pent-3-en-(E)-1-ynyl]benzoic acid], the “% of inhibition of the agonist activity” value with RAR [1] (dose 0.1% w/v) is recorded as 41%; in the test with RAR [2], 69%.

For `COCOc1cccc(-c2ccc(C)cc2)c1/C=C/C#Cc1ccc(C(=O)O)cc1` [Example 52, 4-[4-(3-Methoxymethoxy-4'-methylbiphenyl-2-yl)but-3-en-(E)-1-ynyl]benzoic acid], the “% of inhibition of the agonist activity” value with RAR [1] (dose 0.1% w/v) and in the test with RAR [2] was 97% in each case. The “RAR-antagonist classification from the mouse-ear oedema table” value with RAR [1] is reported as “RAR-antagonist compounds”. In addition, the “RAR-antagonist classification from the F9 table” value with RAR [2] was “RAR-antagonist compounds”.

As to `COCOc1ccc(/C=C/C#Cc2ccc(C(=O)O)cc2)c(-c2ccc(C)cc2)c1` [Example 16, 4-[4-(5-Methoxymethoxy-4'-methylbiphenyl-2-yl)but-3-en-(E)-1-ynyl]benzoic acid], the “% of inhibition of the agonist activity” value in the test with RAR [1] (dose 0.01% w/v) turned out to be 34%; in the test on RAR [2], 92%.
